The values that follow come from patent US8524222B2, “Bacillus isolates and methods of their use to protect against plant pathogens and virus transmission” (Montana State University, priority 2006, dated 2013).

“And” between values parts separate entries of the source, which are not always exact repeats. Identical values can stand only once.

In test [1] the test system is Cercospora beticola. Further details: species or system sugar beet. To be noted: in vivo.
The test system of test [2] is hydrogen peroxide production. Briefly: Phenol red oxidation assay for biphasic hydrogen peroxide production in protoplasts and leaf disks. It counts as cell-based, sugar beet. How it is done: Sugar beet protoplasts were isolated from sugar beet leaves to provide a medium to measure hydrogen peroxide production. Sugar beet leaves were gently brushed on the adaxial and abaxial surfaces with a 50 ft bristle brush to create small abrasions. The leaves were then cut into 1 cm strips and vacuum infiltrated for 5 min with 0.7 M sucrose containing 3.8% CaCL2, CPW salts (Frearson et al, 1973), 1.2% cellulase (Sigma), and 0.4% macerozyme (ICN Biomedicals). The infiltrated leaves were incubated in the 0.7M sucrose-salt and enzyme solution for 24-48 hours in the dark. […]
To determine if the Bacillus strains elicited biphasic hydrogen peroxide production in sugar beet, phenol red oxidation assays were performed according to Pick and Keisari (1980). […] The amount of hydrogen peroxide produced from protoplasts in response to treatment with a Bacillus control agent was calculated as follows: amount of hydrogen peroxide produced in Bacillus protoplast reactions—(amount of hydrogen peroxide produced in protoplast only reactions+amount of hydrogen peroxide produced in Bacillus-only reaction). The amount of hydrogen peroxide produced by the leaf disks in response to Bacillus treatment was calculated as follows: amount of hydrogen peroxide produced by Bacillus-treated leaf disks-amount of hydrogen peroxide produced by leaf disks only reaction.

Test [3] relates to B-1,3-glucanase. Briefly: B-1,3-glucanase specific activity of apoplastic protein (glucose release from laminarin). It counts as in vivo, sugar beet. The note with it: distal leaves, six days post treatment. The method, then:
(§1) One leaf per replicate was collected for each treatment and immediately placed in buffer (150 mm NaCl, 25 mm MES, pH 6-2). Apoplast extractions were collected as described by Klement having substituted buffer (150 mM NaCl, 25 mm MES. pH 6.2) for water.
The specific activity of sugar beet apoplastic B-1,3-glucanase was determined by measuring the release of glucose units from laminarin. Sodium acetate buffer (100 IJI, pH 5.0, 100 mM) containing 0.5% laminarin and 0.5 ug-2.0 ug apoplastic protein (plants per treatment replicated 3 times) was incubated at 3rc for 30-60 min. Following incubation, 900 ul of water and 1 ml of alkaline copper reagent was added to each 2 reaction. The tubes were then placed into a boiling water bath for 10 min. After cooling on ice, 1 ml arsenomolybdate color reagent was added to each reaction. Once the bubbling had subsided, 10 ml of water were added to each tube before reading the A660.

Test [4] relates to Chitinase. Briefly: Glycol chitin plate assay for chitinase activity (screening). The note with it: cumulative results, 6 days after treatment. It counts as in vivo, sugar beet. The method, then:
(§2) The leaf penultimate to the oldest true leaf was treated with one of the Bacillus strains. […] The plants were kept at 28+/−2° C. for 6 days at which time the apoplastic proteins were collected as described by Klement (1965), with the following modification: a buffer containing 150 mM NaCl and 25 mM MES, pH 6.2, was substituted for distilled water. The proteins were quantified by Bradford reagent (Bio-Red) using bovine serum albumin as standards and frozen at −80° C. until analyzed.
Apoplastic protein (0.009, 0.006, and 0.005 ug for each sample in replicates of 3) was added to wells in a 1% agarose gel containing 0.01% glycol chitin in a 14 cm diameter glass petri plate, along with chitinase standards (Streptomyces griseus, Sigma). The plates were incubated at 37° C. for 24 hours. Following incubation. 50 ml of 500 mM Tris-HCl (pH 8.9) containing 0.01°/fluorescent brightener was added to the plate for 10 min. The plate was then rinsed three times with distilled water, flooded with water, and allowed to destain in the dark for 2-24 hours. The non-fluorescent lytic zones on a fluorescent background were measured while the plate was on a 302 nm UV light source. Specific activity (mg of N-acetyl-D-glucosamine released/hr/mg of apoplastic protein) was determined by comparison of the lyric zone diameter of the standards and the apoplastic samples (Velasquez. 2002).

The test system of a further test is salicylic acid. Further details: species or system sugar beet. To be noted: in vivo.
The subject of test [5] is B-1,3-glucanase. The test can be described thus: Aniline blue plate assay for B-glucanase activity (screening). It is filed as in vivo, sugar beet. To be noted: cumulative results, 6 days after treatment. The method, then: as §2
Apoplastic protein (0.75, 0.50, and 0.25 ug for each sample in replicates of 3) was added to 3-mm diameter wells in a 0.5% agarose gel containing 0.005% aniline blue (MCB) and 0.5m.1/ml laminarin (from Laminaria digitata, Sigma) in a 14 cm diameter glass petri plate, along with laminarinase (Penicillium spp., Sigma) standards (2×10.5−2×10^−3 units of lamina˜inase). The plates were incubated at 30° C. for 18-24 hours. Following Incubation, the pink lytic zones on a blue background were measured while the plate was on a white light source. Specific activity (ug of glucose released/min/mg of apoplastic protein) was determined by comparison of the lytic zone diameter of the standards and the apoplastic samples.

For the next test, the system named is Peroxidase. Briefly: Apoplastic peroxidase activity (guaiacol reagent). It counts as in vivo, sugar beet. To be noted: distal leaves, six days post treatment. The method, then:
The concentration of protein as adjusted to give a change in absorbance units greater than 0.100, but less than 0.200, per minute. Specific activity was expressed as the increase inabsorbance (A470) over time (2 min) per mg of protein, as determined using Bradford reagent (BioRAD).

Test [6] deals with Fusarium culmorum isolate 2279. Also on record: species or system spring wheat. To be noted: in vivo.
Test [7] relates to Cercospora beticola. Also on record: species or system sugar beet. The note with it: in vivo. This is another data set of the same source.
Another test deals with NPR1. Further details: species or system sugar beet. The note with it: in vivo.
The test system of test [8] is Chitinase. Briefly: Chitinase specific activity of apoplastic protein by plate assay, six days post treatment. The note with it: distal leaves. It counts as in vivo, sugar beet. How it is done:
as §1
Chitinase Specific Activity Determination by Plate Assay Sodium phosphate buffer (pH 5.0, 0.01 M) containing 1 agarose and 0.1% glycol chitin was added to a 9 cm diameter glass petri dish. Wells, 3 mm diameter, were excised from the agarose (three per sample for each of the three replicates per treatment). Dilutions of apoplastic protein (0.7, 0.35, and 0.23 ug) and chitinase standards (chitinase from Streptomycesgriseus Sigma) were loaded into the wells. The plate was incubated at 37° C. for 24 h. Following the incubation, 50 ml of 500 mMTris-HCl (pH 8.9) containing 0.01% fluorescent brightener was added to the plate and incubated for 10 min. The plate was then quickly rinsed 3× with water, flooded with water, and destained overnight in the dark. Non-fluorescent lytic regions on a fluorescent background were measured while the plate was on an uv light source. Specific activity (mg of N-acetyl-n-glucosamine released /hr /mg of apoplastic protein) was determined by comparison of the diameters of the lytic regions for the standards and the lytic regions for the apoplastic protein samples [55]. Results

For test [9], the system named is chitinase and B-1,3-glucanase. Briefly: Combined glycol chitin and aniline blue plate assays as predictor of SAR induction. To be noted: identified as SAR-inducer by increased activity of both defense proteins. Further details: key: ✓: correctly identified all SAR-inducing isolates, indicated by check marks in Table 5. It counts as in vivo, sugar beet. The source says: There may be circumstances where the occurrence of chitinase and B-glucanase alone is not correlated with disease control (Punja, 2001), especially with fungal pathogens, since the enzymes function synergistically (Melchers and Stuiver, 2000). Therefore examination of the defense proteins together provides a more accurate prediction of disease control capability. Based on the assumption that increased activity for both defense proteins indicated SAR-inducing capacity, combined results from the glycol chitin and aniline blue plate assays correctly identified all SAR-inducing isolates, indicated by check marks in Table 5.

The subject of a further test is Botrytis cinerea. Further details: species or system Arabidopsis thaliana. The note with it: in vivo.
The subject of a further test is C. beticola. The test can be described thus: Field studies of Cercospora leaf spot control, Sidney, Mont. Further details: species or system sugar beet. To be noted: in vivo. The method, then: Field studies were conducted at the Eastern Agricultural Research Center in Sidney, Mont. from 1996 through 2003. Sugar beet variety ‘Beta 1996’ was planted the first year, VDH 66140 was planted the second year, HH88 the third year, KW2262 the fourth year and Beta 2185 the fifth, sixth, and seventh years. All cultivars were equally susceptible to C. beticola infection (BetaSeed, Shakopee, Minn., U.S.A.). […] In the last two years, freshly grown, washed cells were harvested from a 24 h tryptic soy broth culture grown at room temperature and prepared as described above, and applied to the plants. Fungicide treatments included triphenyltin hydroxide (TPTFI, SuperTin, Griffin L.L.C.), propiconazole (Tilt, Syngenta Crop Protection, Inc) and tetraconazole (Eminent, Sipeam Agro USA Inc.) that were applied at 390, 253 and 876 g ai ha^−1, respectively. All treatments were applied at 1761 ha^−1 using a CO2 backpack sprayer with a 4-nozzle boom starting at disease onset and continued at 14 day intervals for a total of four sprays. Plots were arranged “in a randomized complete block design. with six replicates per treatment. […] Area under the disease progress curve (AUDPC) was calculated for treated and untreated plants and percent disease control was determined as follows: 1-([…])*100. […]

The molecule `CSC(=O)c1cccc2nnsc12` [ASM, Acibenzolar-S-methyl] had a disease reduction with Cercospora beticola [1] of 50%. Further, the “biphasic hydrogen peroxide production” value in test [2] is “did not induce biphasic hydrogen peroxide production”. Also, in the test on B-1,3-glucanase [3], the “Specific Activity Beta-glycanase” value was 198.6 micrograms of glucose released per minute per milligram of apoplastic protein. In addition, the Glycol chitin plates in the test with Chitinase [4] worked out at 3.09hed. Besides, the “total SA levels over a 48 hour sampling scheme versus time zero” value with salicylic acid is “lack of SA accumulation”. The Aniline blue plates in the test on B-1,3-glucanase [5] worked out at 5.70a. Besides, in the test with Peroxidase, the “Specific Activity Peroxidase” value was 71.4 changes in absorbance (470 nm) per minute per milligram of apoplastic protein. Besides, the “Disease Severity Index (%)” value in test [6] is 60.43% and 46.88% and 42.73 b % and 48.97% and 37.53 ab % and 47.31 b %. Besides, the “% Reduction at 21 DPC” value with Cercospora beticola [7] is 63.6% and 64.6%. Further, the “activation of NPR1” value in the test on NPR1 is “activated NPR1 by 48 hours”. The “Specific Activity Chitinase” value in the test on Chitinase [8] is recorded as 1.26 milligrams of N-acetyl-n-gluco. Besides, the “Aniline blue and glycol chitin plates” value in test [9] is given as “✓”.
As to `CC/C=C\CC1C(=O)CCC1CC(=O)OC` (centres unmarked) [methyl jasmonate], in the test on Botrytis cinerea, the “% disease reduction in comparison to distilled water” value (from here on “% disease reduction in comparison”) worked out at 49.9 d %.
In the case of `C=CCOC1=NS(=O)(=O)c2ccccc21` [PBZ, Probenazole], the “% disease reduction in comparison” value in the test on Botrytis cinerea was determined as 41.9 c %.
Consider `O=C(O)c1ccccc1O` [SA, salicylic acid], for which the “activation of NPR1” value in the test on NPR1 is “activated NPR1 by 48 hours”.
Regarding `[OH][Sn]([c]1ccccc1)([c]1ccccc1)[c]1ccccc1` [TPTH, triphenyltin hydroxide], the “Disease Reduction by Year” value in the test with C. beticola was 81% and 90% and 94% and 72% and 88^d %.
Consider `O=P(O)(O)CCCl` [ethephon, 2-chloroethylphosphonic acid], for which the “% disease reduction in comparison” value in the test on Botrytis cinerea was 28.1 b %.
